Results reported in US20250250230A1, “HETEROCYCLIC COMPOUND” (TAKEDA PHARMACEUTICAL COMPANY LIMITED, priority 2022, published 2025).

Each compound was assayed against T1, human orexin type 2 receptor (Homo sapiens, UniProt O43614) (assay: Measurement of orexin type 2 receptor agonist activity (calcium fluorescence, Fluo-4 AM, FDSS)). Details: test compound 3 μM; CHO cells expressing human OX2 receptor; DMSO = 0%, orexin A (human) = 100%.
T1 construct: expressed in transfected cells
T1 sequence (O43614 1-444): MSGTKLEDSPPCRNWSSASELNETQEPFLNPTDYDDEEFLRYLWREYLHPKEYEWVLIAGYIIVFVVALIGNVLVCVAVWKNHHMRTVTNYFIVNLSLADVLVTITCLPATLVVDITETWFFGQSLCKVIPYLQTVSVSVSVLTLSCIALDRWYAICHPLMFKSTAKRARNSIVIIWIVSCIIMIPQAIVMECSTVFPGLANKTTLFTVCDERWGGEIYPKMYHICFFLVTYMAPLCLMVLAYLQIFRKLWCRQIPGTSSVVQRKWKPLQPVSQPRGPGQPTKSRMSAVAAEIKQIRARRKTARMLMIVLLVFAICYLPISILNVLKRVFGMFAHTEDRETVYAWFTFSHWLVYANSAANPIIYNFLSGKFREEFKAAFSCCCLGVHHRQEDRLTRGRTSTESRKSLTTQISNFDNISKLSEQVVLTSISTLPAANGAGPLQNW
Type: cell-based
Procedure, shortened: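 CHO-K1 cells stably expressing human OX2R were loaded with Fluo-4 AM (30 min 37 °C, 30 min RT) in HEPES-buffered HBSS with 0.1% BSA and probenecid. Calcium fluorescence was followed on FDSS for 2 min after compound addition; activity normalised to DMSO (0%) and 10 nM orexin A (100%).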
In the case of `CN(C)S(=O)(=O)NC1CCN(C(=O)C2CC2c2ccccc2-c2c(F)cccc2F)C1` (racemic) [Example 113, a mixture of rac-N′-{(3R)-1-[(1R,2R)-2-(2′,6′-difluoro[1,1′-biphenyl]-2-yl)cyclopropane-1-carbonyl]pyrrolidin-3-yl}-N,N-dimethylsulfuric diamide and rac-N′-{(3S)-1-[(1R,2R)-2-(2′,6-difluoro[1,1′-biphenyl]-2-yl)cyclopropane-1-carbonyl]pyrrolidin-3-yl}-N,N-dimethylsulfuric diamide], the “OX2R agonist activity (3 μM, %)” value was 100%.
`CS(=O)(=O)NCC12CC(C1)N(C(=O)[C@@H]1C[C@@]1(F)c1ccccc1-c1c(F)cccc1F)C2` [Example 359, N-({2-[(1S,2S)-2-(2′,6′-difluoro[1,1′-biphenyl]-2-yl)-2-fluorocyclopropane-1-carbonyl]-2-azabicyclo[2.1.1]hexan-4-yl}methyl)methanesulfonamide] was tested, and the “OX2R agonist activity (3 μM, %)” value was 94%.
`CCS(=O)(=O)NC[C@@H]1CCN1C(=O)[C@@H]1C[C@@]1(F)c1ccccc1-c1c(F)cccc1F` (single isomer, unassigned) [Example 351, N-({(2R)-1-[(1S,2S)-2-(2′,6′-difluoro[1,1′-biphenyl]-2-yl)-2-fluorocyclopropane-1-carbonyl]azetidin-2-yl}methyl)ethanesulfonamide, or N-({(2S)-1-[(1S,2S)-2-(2′,6′-difluoro[1,1′-biphenyl]-2-yl)-2-fluorocyclopropane-1-carbonyl]azetidin-2-yl}methyl)ethanesulfonamide] was tested, and the “OX2R agonist activity (3 μM, %)” value was 101%.
In the case of `CS(=O)(=O)NCC1CCN(C(=O)[C@@H]2C[C@@]2(F)c2ccccc2-c2c(F)cccc2F)C1` (stereo partly drawn) [Example 450, N-({(3R)-1-[(1S,2S)-2-(2′,6′-difluoro[1,1′-biphenyl]-2-yl)-2-fluorocyclopropane-1-carbonyl]pyrrolidin-3-yl}methyl)methanesulfonamide, or N-({(3S)-1-[(1S,2S)-2-(2′,6′-difluoro[1,1′-biphenyl]-2-yl)-2-fluorocyclopropane-1-carbonyl]pyrrolidin-3-yl}methyl)methanesulfonamide], the “OX2R agonist activity (3 μM, %)” value was 96%.
With `Cc1ccc(C2(F)CC2C(=O)N2C[C@@H](C)[C@H]2CNS(C)(=O)=O)c(-c2c(F)cccc2F)c1` (stereo partly drawn) [Example 396, N-({(2S,3R)-1-[(1R,2R)-2-(2′,6′-difluoro-5-methyl[1,1′-biphenyl]-2-yl)-2-fluorocyclopropane-1-carbonyl]-3-methylazetidin-2-yl}methyl)methanesulfonamide, or N-({(2S,3R)-1-[(1S,2S)-2-(2′,6′-difluoro-5-methyl[1,1′-biphenyl]-2-yl)-2-fluorocyclopropane-1-carbonyl]-3-methylazetidin-2-yl}methyl)methanesulfonamide] the “OX2R agonist activity (3 μM, %)” value was 104%.
In the case of `CS(=O)(=O)N[C@@H]1CN(C(=O)[C@@H]2C[C@H]2c2ccccc2-c2c(F)cccc2F)C[C@@H]1F` [Example 241, N-{(3R,4S)-1-[(1R,2R)-2-(2′,6′-difluoro[1,1′-biphenyl]-2-yl)cyclopropane-1-carbonyl]-4-fluoropyrrolidin-3-yl}methanesulfonamide], the “OX2R agonist activity (3 μM, %)” value was 103%.
For `CC1C(NS(C)(=O)=O)CCN1C(=O)[C@@H]1C[C@H]1c1ccccc1-c1c(F)cccc1F` (stereo partly drawn) [Example 297, N-{(2R,3R)-1-[(1R,2R)-2-(2′,6′-difluoro[1,1′-biphenyl]-2-yl)cyclopropane-1-carbonyl]-2-methylpyrrolidin-3-yl}methanesulfonamide, or N-{(2S,3S)-1-[(1R,2R)-2-(2′,6′-difluoro[1,1′-biphenyl]-2-yl)cyclopropane-1-carbonyl]-2-methylpyrrolidin-3-yl}methanesulfonamide], the “OX2R agonist activity (3 μM, %)” value was 101%.
With `CS(=O)(=O)N[C@@H]1CN(C(=O)C2CC2c2ccccc2-c2c(F)cccc2F)CCC1(F)F` (stereo partly drawn) [Example 215, N-{(3R)-1-[(1R,2R)-2-(2′,6′-difluoro [1,1′-biphenyl]-2-yl)cyclopropane-1-carbonyl]-4,4-difluoropiperidin-3-yl}methanesulfonamide, or N-{(3R)-1-[(1S,2S)-2-(2′,6′-difluoro[1,1′-biphenyl]-2-yl)cyclopropane-1-carbonyl]-4,4-difluoropiperidin-3-yl}methanesulfonamide] the “OX2R agonist activity (3 μM, %)” value was 98%.
In the case of `CS(=O)(=O)N[C@H]1C[C@@H](O)CN(C(=O)[C@@H]2C[C@@]2(F)c2ccccc2-c2c(F)cccc2F)C1` [Example 341, N-{(3S,5R)-1-[(1S,2S)-2-(2′,6′-difluoro[1,1′-biphenyl]-2-yl)-2-fluorocyclopropane-1-carbonyl]-5-hydroxypiperidin-3-yl}methanesulfonamide], the “OX2R agonist activity (3 μM, %)” value was 101%.
For `CS(=O)(=O)N[C@@H]1CN(C(=O)[C@@H]2C[C@H]2c2ccccc2-c2c(F)cccc2F)CC(F)(F)C1` [Example 271, N-{(3S)-1-[(1R,2R)-2-(2′,6′-difluoro[1,1′-biphenyl]-2-yl)cyclopropane-1-carbonyl]-5,5-difluoropiperidin-3-yl}methanesulfonamide], the “OX2R agonist activity (3 μM, %)” value was 87%.
With `CS(=O)(=O)NC1CCCN(C(=O)C2CC2c2ccccc2-c2ncccc2F)CC1` (mixture of isomers) [Example 256, a mixture of N-[(4S)-1-{(1R,2R)-2-[2-(3-fluoropyridin-2-yl)phenyl]cyclopropane-1-carbonyl}azepan-4-yl]methanesulfonamide and N-[(4S)-1-{(1S,2S)-2-[2-(3-fluoropyridin-2-yl)phenyl]cyclopropane-1-carbonyl}azepan-4-yl]methanesulfonamide] the “OX2R agonist activity (3 μM, %)” value was 52%.
With `CCS(=O)(=O)NC1CCCN(C(=O)C2CC2c2ccccc2-c2c(F)cccc2F)C1` (racemic) [Example 28, a mixture of rac-N-{(3R)-1-[(1R,2R)-2-(2′,6′-difluoro[1,1′-biphenyl]-2-yl)cyclopropane-1-carbonyl]piperidin-3-yl}ethanesulfonamide and rac-N-{(3S)-1-[(1R,2R)-2-(2′,6′-difluoro[1,1′-biphenyl]-2-yl)cyclopropane-1-carbonyl]piperidin-3-yl}ethanesulfonamide] the “OX2R agonist activity (3 μM, %)” value was 103%.
In the case of `CS(=O)(=O)NC1CCCN(C(=O)C2CC2c2c(F)cccc2-c2c(F)cccc2F)CC1` (racemic) [Example 32, a mixture of rac-N-{(4R)-1-[(1R,2R)-2-(2′,3,6′-trifluoro[1,1′-biphenyl]-2-yl)cyclopropane-1-carbonyl]azepan-4-yl}methanesulfonamide and rac-N-{(4S)-1-[(1R,2R)-2-(2′,3,6′-trifluoro[1,1′-biphenyl]-2-yl)cyclopropane-1-carbonyl]azepan-4-yl}methanesulfonamide], the “OX2R agonist activity (3 μM, %)” value was 102%.
For `CS(=O)(=O)NC1CCN(C(=O)C2CC2c2ccc(F)cc2-c2c(F)cccc2F)C1` (racemic) [Example 135, a mixture of rac-N-{(3R)-1-[(1R,2R)-2-(2′,5,6′-trifluoro[1,1′-biphenyl]-2-yl)cyclopropane-1-carbonyl]pyrrolidin-3-yl}methanesulfonamide and rac-N-{(3S)-1-[(1R,2R)-2-(2′,5,6′-trifluoro[1,1′-biphenyl]-2-yl)cyclopropane-1-carbonyl]pyrrolidin-3-yl}methanesulfonamide], the “OX2R agonist activity (3 μM, %)” value was 111%.
`CN(C)S(=O)(=O)NC[C@@H]1CN(C(=O)[C@@H]2C[C@H]2c2ccccc2-c2c(F)cccc2F)CCO1` [Example 299, N′-({(2S)-4-[(1R,2R)-2-(2′,6′-difluoro[1,1′-biphenyl]-2-yl)cyclopropane-1-carbonyl]morpholin-2-yl}methyl)-N,N-dimethylsulfuric diamide] was tested, and the “OX2R agonist activity (3 μM, %)” value was 90%.
In the case of `CS(=O)(=O)NC1(CF)CCN(C(=O)[C@@H]2C[C@H]2c2ccccc2-c2c(F)cccc2F)C1` (stereo partly drawn) [Example 342, N-[(3R)-1-[(1R,2R)-2-(2′,6′-difluoro[1,1′-biphenyl]-2-yl)cyclopropane-1-carbonyl]-3-(fluoromethyl)pyrrolidin-3-yl]methanesulfonamide, or N-[(3S)-1-[(1R,2R)-2-(2′,6′-difluoro[1,1′-biphenyl]-2-yl)cyclopropane-1-carbonyl]-3-(fluoromethyl)pyrrolidin-3-yl]methanesulfonamide], the “OX2R agonist activity (3 μM, %)” value was 101%.
In the case of `CS(=O)(=O)NCC1CN(C(=O)C2CC2c2ccccc2-c2c(F)cccc2F)CC1(F)F` (racemic) [Example 285, a mixture of rac-N-({(3R)-1-[(1R,2R)-2-(2′,6′-difluoro[1,1′-biphenyl]-2-yl)cyclopropane-1-carbonyl]-4,4-difluoropyrrolidin-3-yl}methyl)methanesulfonamide and rac-N-({(3S)-1-[(1R,2R)-2-(2′,6′-difluoro[1,1′-biphenyl]-2-yl)cyclopropane-1-carbonyl]-4,4-difluoropyrrolidin-3-yl}methyl)methanesulfonamide], the “OX2R agonist activity (3 μM, %)” value was 63%.
With `CS(=O)(=O)NCC1CCN(C(=O)C2CC2c2ccccc2-c2c(F)cccc2F)C1` (racemic) [Example 40, a mixture of rac-N-({(3R)-1-[(1R,2R)-2-(2′,6′-difluoro[1,1′-biphenyl]-2-yl)cyclopropane-1-carbonyl]pyrrolidin-3-yl}methyl)methanesulfonamide and rac-N-({(3S)-1-[(1R,2R)-2-(2′,6′-difluoro[1,1′-biphenyl]-2-yl)cyclopropane-1-carbonyl]pyrrolidin-3-yl}methyl)methanesulfonamide] the “OX2R agonist activity (3 μM, %)” value was 77%.
